# Key:
# [1] = system: KARPAS-422 (B-Cell Non-Hodgkin's Lymphoma); assay: Bliss excess, mean over the matrix (fraction); higher = more synergy
# Method in brief: (§1)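 Cell lines grown in DMEM/F12 or RPMI with 10% FBS were plated in 1536-well plates and held 24 hours at 37°C, 5% CO2 before 72 hours of exposure to two-drug dose matrices, with DMSO typically at 0.2%. CellTiter-Glo 2.0 luminescence gave viability, which was converted to inhibition. Vehicle wells were set to 0 and blank wells to 1. Combination Emax is the second-highest inhibition in the matrix, and Bliss excess is the observed combination effect minus the expected EA + EB − EA·EB, where EA and EB are the single-agent effects.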
# [2] = system: CAPAN-2 (Pancreatic Carcinoma); assay: as above
# Method in brief: as §1
# [3] = system: ECC10 (Gastric Carcinoma); assay: as above
# Method in brief: as §1
# [4] = system: NCI-H1581 (Non-Small Cell Lung Carcinoma); assay: as above
# Method in brief: as §1
# FU97 (Gastric Carcinoma) [5] = assay: as above
# Method in brief: as §1
# U-2-OS (Osteosarcoma) [6] = assay: as above
# Method in brief: as §1
# NY (Osteosarcoma) [7] = assay: as above
# Method in brief: as §1
# [8] = system: VCaP (Prostate Carcinoma); assay: as above
# Method in brief: as §1
# IGR-37 (Melanoma) [9] = assay: as above
# Method in brief: as §1
# [10] = system: COLO-320-HSR (Colorectal Carcinoma); assay: as above
# Method in brief: as §1
# [11] = system: NCI-H64 (Small Cell Lung Carcinoma); assay: as above
# Method in brief: as §1
# [12] = system: ONS-76 (Other Solid Carcinomas); assay: as above
# Method in brief: as §1
# [13] = system: TT (Thyroid Gland Carcinoma); assay: as above
# Method in brief: as §1
# [14] = system: CCK-81 (Colorectal Carcinoma); assay: as above
# Method in brief: as §1
# [15] = system: PANC-10-05 (Pancreatic Carcinoma); assay: as above
# Method in brief: as §1
# [16] = system: BICR22 (Oral Cavity Carcinoma); assay: as above
# Method in brief: as §1
# [17] = system: NCI-H1666 (Lung Adenocarcinoma); assay: as above
# Method in brief: as §1
# [18] = system: NCI-H2066 (Squamous Cell Lung Carcinoma); assay: as above
# Method in brief: as §1
# [19] = system: KARPAS-422 (B-Cell Non-Hodgkin's Lymphoma); assay: combination Emax (second highest fraction inhibited in the dose matrix, 72 h); higher = more inhibition; extreme values may be limits of the assay
# Method in brief: as §1
# [20] = system: CAPAN-2 (Pancreatic Carcinoma); assay: as above
# Method in brief: as §1
# [21] = system: ECC10 (Gastric Carcinoma); assay: as above
# Method in brief: as §1
# [22] = system: NCI-H1581 (Non-Small Cell Lung Carcinoma); assay: as above
# Method in brief: as §1
# FU97 (Gastric Carcinoma) [23] = assay: as above
# Method in brief: as §1
# U-2-OS (Osteosarcoma) [24] = assay: as above
# Method in brief: as §1
# NY (Osteosarcoma) [25] = assay: as above
# Method in brief: as §1
# [26] = system: VCaP (Prostate Carcinoma); assay: as above
# Method in brief: as §1
# IGR-37 (Melanoma) [27] = assay: as above
# Method in brief: as §1
# [28] = system: COLO-320-HSR (Colorectal Carcinoma); assay: as above
# Method in brief: as §1
# [29] = system: NCI-H64 (Small Cell Lung Carcinoma); assay: as above
# Method in brief: as §1
# [30] = system: ONS-76 (Other Solid Carcinomas); assay: as above
# Method in brief: as §1
# [31] = system: TT (Thyroid Gland Carcinoma); assay: as above
# Method in brief: as §1
# [32] = system: CCK-81 (Colorectal Carcinoma); assay: as above
# Method in brief: as §1
# [33] = system: PANC-10-05 (Pancreatic Carcinoma); assay: as above
# Method in brief: as §1
# [34] = system: BICR22 (Oral Cavity Carcinoma); assay: as above
# Method in brief: as §1
# [35] = system: NCI-H1666 (Lung Adenocarcinoma); assay: as above
# Method in brief: as §1
# [36] = system: NCI-H2066 (Squamous Cell Lung Carcinoma); assay: as above
# Method in brief: as §1
# 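For Bliss excess, mean over the matrix in this document: after 72 h of two-drug dosing.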
Compound,Bliss excess [1],Bliss excess [2],Bliss excess [3],Bliss excess [4],Bliss excess (FU97 (Gastric Carcinoma) [5]),Bliss excess (U-2-OS (Osteosarcoma) [6]),Bliss excess (NY (Osteosarcoma) [7]),Bliss excess [8],Bliss excess (IGR-37 (Melanoma) [9]),Bliss excess [10],Bliss excess [11],Bliss excess [12],Bliss excess [13],Bliss excess [14],Bliss excess [15],Bliss excess [16],Bliss excess [17],Bliss excess [18],combination Emax [19],combination Emax [20],combination Emax [21],combination Emax [22],combination Emax (FU97 (Gastric Carcinoma) [23]),combination Emax (U-2-OS (Osteosarcoma) [24]),combination Emax (NY (Osteosarcoma) [25]),combination Emax [26],combination Emax (IGR-37 (Melanoma) [27]),combination Emax [28],combination Emax [29],combination Emax [30],combination Emax [31],combination Emax [32],combination Emax [33],combination Emax [34],combination Emax [35],combination Emax [36]
"N#Cc1cnc(Nc2cc(NC[C@H]3CNCCO3)c(C(F)(F)F)cn2)cn1 [SRA737] + O=c1[nH]cc(F)c(=O)[nH]1 [5-Fluorouracil] (first compound max 10 µM, 7x7, partner max 20 µM)",-0.0095,-0.0132,0.0718,0.0093,-0.0344,-0.0167,-0.0522,-0.046,-0.057,0.0047,-0.0104,-0.0482,0.0035,-0.0681,-0.0727,0.0671,-0.0428,-0.0379,0.521,0.147,0.72,0.411,0.167,0.625,0.538,0.378,0.728,0.302,0.736,0.835,0.373,0.855,0.311,0.84,0.381,0.197
"Cc1nc(-c2cn3c(n2)-c2ccc(-c4cnn(C(C)(C)C(N)=O)c4)cc2OCC3)n(C(C)C)n1 [Taselisib] + O=C(Nc1ccc2[nH]nc(-c3ccncc3)c2c1)[C@@H]1CCN(CC(=O)N2CCN(c3ccc(-c4ncccn4)cc3)CC2)C1 [SCH772984] (first compound max 10 µM, 7x7, partner max 5 µM)",0.0406,0.0241,0.124,0.178,0.0139,0.112,0.0687,-0.0098,0.0732,-0.0441,0.0028,0.0608,0.106,0.0528,0.0166,0.116,0.0878,0.0133,0.554,0.521,1,0.635,0.404,0.993,0.564,0.587,0.938,0.419,0.377,0.976,0.568,0.988,0.809,0.966,0.881,0.681
"CC1(C)CCC(CN2CCN(c3ccc(C(=O)NS(=O)(=O)c4ccc(NCC5CCOCC5)c([N+](=O)[O-])c4)c(Oc4cnc5[nH]ccc5c4)c3)CC2)=C(c2ccc(Cl)cc2)C1 [Venetoclax] + CS(=O)(=O)CCNCc1ccc(-c2ccc3ncnc(Nc4ccc(OCc5cccc(F)c5)c(Cl)c4)c3c2)o1 [Lapatinib] (first compound max 1 µM, 7x7, partner max 10 µM)",0.049,-0.0425,0.0105,-0.0136,0.0218,-0.044,-0.0008,-0.0449,0.0223,-0.0048,-0.0068,-0.0055,-0.0344,-0.0352,-0.0426,-0.0287,-0.0214,-0.0203,0.884,0.115,0.94,0.242,0.813,0.0668,0.226,0.109,0.253,0.169,0.21,0.228,0.121,0.892,0.353,0.21,0.568,0.352

# — the supplement of paper PMC11061612
